Assay results as given in patent US20230248722A1, “CLOFAZIMINE COMPOSITION AND METHOD FOR THE TREATMENT OR PROPHYLAXIS OF VIRAL INFECTIONS” (priority 2020, published 2023).

System: SARS-CoV-2
Type: cell-based
Details: in vitro; 2.5 μM (or ~1.2 μg clofazimine/ml)

Compound: CC(C)/N=c1\cc2n(-c3ccc(Cl)cc3)c3ccccc3nc-2cc1Nc1ccc(Cl)cc1 [clofazimine, N,5-bis(4-chlorophenyl)-3-propan-2-yliminophenazin-2-amine]
- reduce or eliminate viral replication: 40%
